# Source: PubChem BioAssay AID2060908 (Molecular Pharmacology Branch, DTP, NCI, 2025)
# System: 186277-243-T-J2-PDC complex spheroids, viability
# Assay: Anticancer human tumor 186277-243-T-J2-PDC patient-derived colon adenocarcinoma cell line growth inhibition [RAS]
# Conditions: for IC50: curve of first compound; for viability, T/C: stronger effect = lower value
# Method in brief: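 Multi-cell-type spheroids: tumor cells plus HUVEC endothelial cells and mesenchymal stem cells. RAS-pathway inhibitors were combined with targeted agents, each dosed in half-log steps down from clinical Cmax, or from 10 microM when Cmax was unknown.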
# 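Note: spheroids exposed to compounds for 7 days before viability read.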
smiles,measurement,setting,value
Cc1nc(N2CCC3(CC2)COC(C)C3N)c(CO)nc1Sc1ccnc(N)c1Cl (configuration not stated) + C=CC(=O)N1CCN(c2nc(OCC3CCCN3C)nc3c(F)c(-c4nc(N)cc(C)c4C(F)(F)F)c(Cl)cc23)C(C)C1,IC50,second compound 0.00316 µM,> 10 µM
same,IC50,second compound 0.01 µM,> 10 µM
same,IC50,second compound 0.0316 µM,> 10 µM
same,IC50,second compound 0.1 µM,> 10 µM
same,IC50,second compound 0.316 µM,> 10 µM
same,IC50,second compound 1 µM,> 10 µM
same,"viability, T/C","second compound 0.00316 µM, first compound 0.0316 µM",102%
same,"viability, T/C","second compound 0.00316 µM, first compound 0.1 µM",102%
same,"viability, T/C","second compound 0.00316 µM, first compound 0.316 µM",127%
same,"viability, T/C","second compound 0.00316 µM, first compound 1 µM",108%
same,"viability, T/C","second compound 0.00316 µM, first compound 3.16 µM",116%
same,"viability, T/C","second compound 0.00316 µM, first compound 10 µM",78.9%
same,"viability, T/C","second compound 0.01 µM, first compound 0.0316 µM",99.8%
same,"viability, T/C","second compound 0.01 µM, first compound 0.1 µM",101%
same,"viability, T/C","second compound 0.01 µM, first compound 0.316 µM",94.4%
same,"viability, T/C","second compound 0.01 µM, first compound 1 µM",85.2%
same,"viability, T/C","second compound 0.01 µM, first compound 3.16 µM",89.2%
same,"viability, T/C","second compound 0.01 µM, first compound 10 µM",78.7%
same,"viability, T/C","second compound 0.0316 µM, first compound 0.0316 µM",86.8%
same,"viability, T/C","second compound 0.0316 µM, first compound 0.1 µM",103%
same,"viability, T/C","second compound 0.0316 µM, first compound 0.316 µM",113%
same,"viability, T/C","second compound 0.0316 µM, first compound 1 µM",117%
same,"viability, T/C","second compound 0.0316 µM, first compound 3.16 µM",83.2%
same,"viability, T/C","second compound 0.0316 µM, first compound 10 µM",80.4%
same,"viability, T/C","second compound 0.1 µM, first compound 0.0316 µM",94%
same,"viability, T/C","second compound 0.1 µM, first compound 0.1 µM",86.6%
same,"viability, T/C","second compound 0.1 µM, first compound 0.316 µM",91.6%
same,"viability, T/C","second compound 0.1 µM, first compound 1 µM",104%
same,"viability, T/C","second compound 0.1 µM, first compound 3.16 µM",87.7%
same,"viability, T/C","second compound 0.1 µM, first compound 10 µM",87.9%
same,"viability, T/C","second compound 0.316 µM, first compound 0.0316 µM",90.6%
same,"viability, T/C","second compound 0.316 µM, first compound 0.1 µM",93.3%
same,"viability, T/C","second compound 0.316 µM, first compound 0.316 µM",104%
same,"viability, T/C","second compound 0.316 µM, first compound 1 µM",115%
same,"viability, T/C","second compound 0.316 µM, first compound 3.16 µM",95.7%
same,"viability, T/C","second compound 0.316 µM, first compound 10 µM",75.8%
same,"viability, T/C","second compound 1 µM, first compound 0.0316 µM",103%
same,"viability, T/C","second compound 1 µM, first compound 0.1 µM",100%
same,"viability, T/C","second compound 1 µM, first compound 0.316 µM",91.8%
same,"viability, T/C","second compound 1 µM, first compound 1 µM",99.1%
same,"viability, T/C","second compound 1 µM, first compound 3.16 µM",92.6%
same,"viability, T/C","second compound 1 µM, first compound 10 µM",83.8%
